The source made the active and inactive calls.
Assays:
Assay type in all cases: nucleic-acid assay
[1] = test system: Nucleic Acid; assay: Binding affinity to d(CGG)10 DNA assessed as thermal denaturation at 100 degC and 20 uM
[2] = test system: Nucleic Acid; assay: Binding affinity to d(CCG)10 DNA assessed as increase in melting temperature at 5 to 20 uM
[3] = test system: Nucleic Acid; assay: Binding affinity to d(CGG)10 DNA assessed as hairpin loop formation at 1 to 30 uM by PAGE analysis
[4] = test system: Nucleic Acid; assay: Binding affinity to d(CGG)10 DNA assessed as inhibition of Taq polymerase-mediated DNA replication
[5] = test system: Nucleic Acid; assay: Binding affinity to d(CGG)10 DNA assessed as inhibition of Taq polymerase at first (CGG)10 repeat region from 3'-end of the template at increasing concentration
[6] = test system: Nucleic Acid; assay: Binding affinity to d(CGG)10 DNA assessed as increase in positive induced CD at 5 to 20 uM by CD-UV analysis
[7] = test system: Nucleic Acid; assay: Binding affinity to d(CGG)10 DNA assessed as formation of stable compound-DNA hairpin loop of the template at increasing compound concentration
[8] = test system: Nucleic Acid; assay: Binding affinity to d(CGG)10 DNA assessed as formation of compound-DNA hairpin loop of the template at low compound concentration
[9] = test system: Nucleic Acid; assay: Binding affinity to d(CGG)10 DNA assessed as decrease in signal intensity by CD-UV analysis
[10] = test system: Nucleic Acid; assay: Binding affinity to d(CGG)10 DNA assessed as inhibition of Taq polymerase at first and fifth part of the (CGG)10 repeat region from 3'-end of the template at 5 uM
[11] = test system: Nucleic Acid; assay: Binding affinity to d(CCG)10 DNA assessed as hairpin loop formation at 30 uM by PAGE analysis
[12] = test system: Nucleic Acid; assay: Binding affinity to d(CCG)10 DNA assessed as inhibition of Taq polymerase-mediated DNA replication at 20 uM
[13] = test system: Nucleic Acid; assay: Binding affinity to d(CGG)10 DNA assessed as increase in strong positive peak by CD-UV analysis

Measured: Activity

Cc1ccc2ccc(NC(=O)OCCCNCCCOC(=O)Nc3ccc4ccc(C)nc4n3)nc2n1
active: [3] | [4] Dose-dependent effect | [5] | [6] | [7] | [8] | [9] Dose-dependent effect | [10] | [13] Dose-dependent effect
inactive: [1] | [2] | [11] | [12]

Source: ChEMBL document CHEMBL2029324, “A small molecule regulates hairpin structures in d(CGG) trinucleotide repeats” (Bioorg Med Chem Lett, 2012)
